Results: patent EP4745117A1, “NOVEL INDENONE DERIVATIVE AND USE THEREOF” (Amyloid Solution Inc., priority 2023, dated 2025)

Experiments:
Aβ1-42 = target: T1, Aβ1-42 (Homo sapiens, UniProt P05067); assay: Amyloid-beta disaggregation test by Thioflavin-T analysis; assay type: biochemical; details: for EC50: Aβ1-42 50 µM aggregated 24 hours, then compound 0 - 500 µM for 48 hours at 37 °C, concentration disaggregating 50 % of aggregates vs control, read-out: EC50 (µM) Aβ; for disaggregation effect for amyloid-beta protein aggregates: statement in words summarising the Thioflavin-T results
T1 construct: dissolving Aβ1-42 or Tau-RD3 (Tau repeat domain 3) monomers in DMSO
Outline: (§1)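 Aβ1-42 (50 µM) or Tau-RD3 (35 µM) pre-aggregated 24 h at 37 °C, then incubated with compound (500 µM down to 0 µM, serial dilution) for 48 h at 37 °C. Read-out by Thioflavin-T (5 µM solution, glycine buffer pH 8.5) fluorescence, ex 450/em 485 nm. Values expressed relative to 72 h aggregated protein-only control (100%).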

[1] = tested on: amyloid-beta oligomers in HEK293 cells transfected with the APP E693Δ mutant plasmid; assay: Amyloid-beta oligomer change by dot blot (A11 antibody) in an amyloid-beta oligomer-overexpressing cell line; assay type: cell-based; details: compound 10 µM, 48 hours, dot blot of cell lysate, relative to control group (FIG. 1)
From the text: To observe the change in intracellular amyloid-beta oligomers, a plasmid with the APP E693Δ (Osaka mutation) mutant, which is associated with early-onset Alzheimer's disease and is known to induce intracellular amyloid-beta oligomer formation, was obtained from GenScript. This plasmid was transfected into HEK293 cells using a liposome-mediated method (Lipofectamine) to prepare a cell line that overexpresses intracellular amyloid-beta oligomers.
HEK293 cells transfected with the APP E693Δ mutant plasmid were incubated for 48 hours in a 37 °C, 5 % CO2 incubator, and then treated with the compounds prepared in 1.1, which were diluted to a concentration of 10 µM in the cell culture medium. The untransfected control group was treated with 0.1 % DMSO, the same as the compound-treated group.
The compound-treated cell lines were again incubated for 48 hours in a 37 °C, 5 % CO2 incubator and then used in the experiment.
After incubating the control and compound-treated cells from Example 2.2, a dot blot was performed using the cell lysate. A 3.5 µg sample was spotted onto a nitrocellulose membrane and air-dried, and then the membrane to which the sample was adhered was blocked with 5 % skim milk. After incubating with the amyloid oligomer antibody A11 to allow binding, the membrane was washed 4 times with TBST, and the secondary antibody was bound. The image signal was measured using a chemiluminescent substrate.
It was confirmed that the amount of amyloid-beta oligomers was reduced by each compound treatment compared to the control group.

[2] = target: Tau-RD3 (Tau repeat domain 3) (Homo sapiens, UniProt P10636); assay: Tau disaggregation test by Thioflavin-T analysis; assay type: biochemical; details: for EC50: Tau-RD3 35 µM aggregated 24 hours, then compound 0 - 500 µM for 48 hours at 37 °C, concentration disaggregating 50 % of aggregates vs control, read-out: EC50 (µM) Tau; for disaggregation effect for tau protein aggregates: statement in words summarising the Thioflavin-T results
Outline: as §1

Sequence of Tau-RD3 (Tau repeat domain 3) (P10636 623-653 limits assumed): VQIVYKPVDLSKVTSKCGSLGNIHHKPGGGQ
T1 sequence (P05067 672-713 limits assumed): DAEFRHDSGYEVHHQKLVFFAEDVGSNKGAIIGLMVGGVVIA

SMILES | EC50 (Aβ1-42) [µM] | disaggregation effect for amyloid-beta protein aggregates (Aβ1-42) | amyloid-beta oligomer reduction effect [1] | EC50 [2] [µM] | disaggregation effect for tau protein aggregates [2]
Cc1ncsc1C1=C(c2ccc(N3CCN(C)CC3)cc2)C(=O)c2cc(Cl)ccc21 [Compound 74-7, 6-chloro-2-(4-(4-methylpiperazin-1-yl)phenyl)-3-(4-methylthiazol-5-yl)-1H-inden-1-one] | < 20 | remarkably excellent disaggregation effect | reduction effect | < 20 | remarkably excellent disaggregation effect
Cc1ncsc1C1=C(c2cnn(C3CCN(C)CC3)c2)C(=O)c2cc(OCCCc3ccccc3)ccc21 [Compound 30, 2-(1-(1-methylpiperidin-4-yl)-1H-pyrazol-4-yl)-3-(4-methylthiazol-5-yl)-6-(3-phenylpropoxy)-1H-inden-1-one] | < 20 | – | reduction effect | < 20 | –
Cc1ncsc1C1=C(c2ccc(N3CCN(C)CC3)cc2)C(=O)c2cc(N3CCN(CCO)CC3)ccc21 [Compound 74, 6-(4-(2-hydroxyethyl)piperazin-1-yl)-2-(4-(4-methylpiperazin-1-yl)phenyl)-3-(4-methylthiazol-5-yl)-1H-inden-1-one] | < 20 | – | reduction effect | < 20 | –
O=C1C(c2ccccc2)=C(c2ccccc2)c2ccc(N3CCN(CCO)CC3)cc21 [Compound 70, 6-(4-(2-hydroxyethyl)piperazin-1-yl)-2,3-diphenyl-1H-inden-1-one] | < 20 | remarkably excellent disaggregation effect | reduction effect | < 20 | remarkably excellent disaggregation effect
CN1CCN(c2ccc(C3=C(c4ccccc4)c4ccccc4C3=O)cc2)CC1 [Compound 90, 2-(4-(4-methylpiperazin-1-yl)phenyl)-3-phenyl-1H-inden-1-one] | < 20 | remarkably excellent disaggregation effect | reduction effect | < 20 | remarkably excellent disaggregation effect
CN1CCN(c2ccc3c(c2)C(=O)C(c2ccccc2)=C3c2ccccc2)CC1 [Compound 13, 6-(4-methylpiperazin-1-yl)-2,3-diphenyl-1H-inden-1-one] | < 20 | remarkably excellent disaggregation effect | reduction effect | < 20 | remarkably excellent disaggregation effect
Cc1cccc(C)c1C1=C(c2ccccc2)C(=O)c2cc(N3CCN(C)CC3)ccc21 [Compound 72, 3-(2,6-dimethylphenyl)-6-(4-methylpiperazin-1-yl)-2-phenyl-1H-inden-1-one] | < 20 | remarkably excellent disaggregation effect | reduction effect | < 20 | remarkably excellent disaggregation effect
